The results in this text go back to patent US7964596B2, “Therapeutic compounds” (Allergan, Inc., priority 2008, dated 2011).

This assay relates to lashes and adjacent hairs of patients having glaucoma. Kind of assay: Observation of lashes and adjacent hairs in glaucoma patients treated in only one eye. The class given is in vivo, human. Particulars: glaucoma patients taking the drug in only one eye; gross inspection and slit lamp biomicroscope. From the text:
In the course of treating patients having glaucoma, treatment may only be appropriate in one eye. […] The lash appearance on the lids of the treated eyes would have appeared quite attractive if it represented a bilateral phenomenon. As a result of its asymmetric nature, the long lashes on one side could be construed as disturbing from a cosmetic standpoint. A systemic examination was preformed as a result of the asymmetric phenomenon. It soon became apparent that this altered appearance was not an isolated finding. […] Definite differences could be identified to varying degrees in the lashes and adjacent hairs of all patients who were taking the drug on a unilateral basis for longer than 6 months.
The changes in the lashes were apparent on gross inspection in several patients once attention was focused on the issue. In those with light colored hair and lashes, the differences were only seen easily with the aid of the high magnification and lighting capabilities of the slit lamp biomicroscope. In the course of glaucoma follow-up examination, attention is generally immediately focused on the eye itself. As a result of the high power magnification needed only one eye is seen at a time and the eye is seen at a high enough power that the lashes are not in focus. […]

“Also recorded” adds a separate entry of the source.

`CCNC(=O)CCC/C=C\C[C@@H]1[C@@H](/C=C/[C@@H](O)CCc2ccccc2)[C@H](O)C[C@@H]1O` [bimatoprost]: the “lash / hair growth in treated eye versus non-treated eye” value is “longer, thicker, and fuller in the treated eye than in the non-treated eye; also recorded: hair growth is stimulated”.
